# Experimental data published in patent US20120196887A1, “METHODS AND COMPOSITIONS FOR IMPROVED RIFAMYCIN THERAPIES” (priority 2011, published 2012).
# Where “and” joins values, the source holds several entries; their conditions need not be identical. Equal entries are not always repeated. Where two headings read alike, the source gives them in different places.
# Experiments:
# [1] = tested on: Enterotoxigenic Escherichia coli (ETEC) strain H10407; experiment: Growth of ETEC strain H10407 with rifaximin in the presence and absence of bile acids (OD600 / cell density); type: cell-based
# Protocol: Enterotoxigenic Escherichia coli (ETEC) strain H10407 was used as a model bacteria in all the susceptibility experiments.
# Equimolar concentrations (0.67 mM) of each of these bile acids were pooled (4 mM total bile acids) for the experiments. In order to determine the Total Human Bile Concentration, a sample of human bile taken after cholecystectomy was kindly provided by Dr. David Graham (Department of Medicine, Veterans Affairs Medical Center and the Division of Molecular Virology, Baylor College of Medicine, Houston, Tex., and Director of Study Design and Clinical Research Core, Texas Medical Center Digestive Disease. Center). The total bile acids concentration was determined using the Diazyme Total Bile Acids assay (Diazyme Laboratories, CA) following the protocol provided by the manufacturer.
# In each experiment, an overnight culture of E. coli H10407 was added to the LB media to OD600 of 0.04 (approximately 4×10^7 cells/mL) and incubated for 4-6 hours at 37° C. in a shaker at 200 rpm. Optical density measurements (OD600) were determined every 30 minutes. The experiment was replicated four times and average OD used for the analysis. […]
# [2] = tested on: Enterotoxigenic Escherichia coli (ETEC) strain H10407; experiment: as above; type: cell-based; remark: listed apart in the source
# [3] = tested on: beta-galactosidase expressed by E. coli H10407; experiment: Beta-galactosidase assay (IPTG-induced expression, Miller Units); type: cell-based, Escherichia coli; conditions: rifaximin added to the culture medium (8, 16, 32 μg/mL), no bile acids
# Protocol: Beta-Galactosidase Assay: Beta-galactosidase is an essential enzyme required by E. coli to metabolize lactose during conditions when available glucose levels are low, but lactose levels are high. When expression of beta-galactosidase is inhibited in a media containing limiting amounts of glucose but high amounts of lactose, once the glucose in the media is exhausted bacterial death occurs. […] To, 1.5 mL microfuge tubes, 50 μL of the induced culture was added to 200 μL of permeabilization solution (0.8 mg/mL hexadecyl trimethylammonium bromide (CTAB), 0.4 mg/mL sodium deoxycholate, 200 mM dibasic sodium phosphate (Na2HPO4), 20 mM potassium chloride (KCl), 2 mM magnesium sulfate (MgSO4), and 5.4 μL/mL beta-mercaptoethanol. After 30 minutes incubation at 30° C., 600 μL of substrate solution (60 mM Na2HPO4, 40 mM NaH2PO4, 10 mM KCl, 20 μg/mL CTAB, 1 mg/mL O-nitrophenyl-β-D-galactoside (ONPG), and 2.7 μL/mL β-mercaptoethanol) was added and the time of addition was recorded. The incubation was allowed to continue at 30° C. for 40 minutes, after which 350 μL of 2 M sodium carbonate (Na2CO3) was added to stop the reaction. The assay, tubes were centrifuged at 15000×g for 15 minutes and absorbance measurements at 420 nm were made in triplicate using the supernatants.
# The concentration of β-galactosidase in Miller Units was calculated as: […]
# [4] = tested on: E. coli H10407; experiment: Total protein content of bacteria treated with rifaximin and bile acids (Bradford assay); type: cell-based, Escherichia coli; conditions: 16 μg/mL rifaximin + bile acids vs rifaximin without bile acids; 4 hours incubation
# Protocol: Aliquots (1 mL) of the culture in each tube were taken every hour for total protein determination. In order to lyse the cells and release the protein, 300 μL of permeabilization solution (2.4 mg/mL hexadecyl trimethylammonium bromide, 1.2 mg/mL sodium deoxycholate, 600 mM dibasic sodium phosphate, 60 mM potassium chloride, 6 mM magnesium sulfate, and 16 μL/mL beta-mercaptoethanol) was added. The tubes were incubated for one hour at room temperature and then centrifuged at 15000×g for 20 minutes. The protein concentration was determined in triplicate using the Bradford assay (Bradford, M. M., A rapid and sensitive method for the quantitation of microgram quantities of protein utilizing the principle of protein-dye binding. Anal Biochem. 72:248-54, 1976) using bovine serum albumin (BSA) as the standard. Each experiment was repeated three times with the average and standard deviation reported.
# [5] = tested on: Shigella flexneri (serotype 2B); experiment: Minimal inhibitory concentration (MIC), Shigella flexneri; type: cell-based
# [6] = tested on: Salmonella enterica (ATCC #14028); experiment: Minimal inhibitory concentration (MIC), Salmonella enterica; type: cell-based; conditions: ATCC14028
# [7] = tested on: Enteroaggregative E. coli; experiment: Minimal inhibitory concentration (MIC), Enteroaggregative E. coli; type: cell-based; conditions: Escherichia coli; Enteroaggregative strain of E. coli used
# [8] = tested on: Shigella flexneri (serotype 2B); experiment: Growth (OD600) and total protein of Shigella flexneri with rifaximin and bile acids; type: cell-based; conditions: 32 μg/mL rifaximin + 4 mM total bile acids
# Protocol: A second culture of Shigella flexneri (serotype 2B) bacteria in LB media to which was added 4 mM of bile acids (comprising an equimolar mixture of each of the bile acids: cholic, deoxycholic, chenodeoxycholic, glycocholic, lithocholic, and taurocholic acids at pH 7.4).
# [9] = tested on: Salmonella enterica (ATCC #14028); experiment: Growth (OD600) and total protein of Salmonella enterica with rifaximin and bile acids; type: cell-based; conditions: 32 μg/mL rifaximin + 4 mM total bile acids
# Protocol: A second culture of Salmonella enterica bacteria in LB media to which was added 4 mM of bile acids (comprising an equimolar mixture of each of the bile acids: cholic, deoxycholic, chenodeoxycholic, glycocholic, lithocholic, and taurocholic acids at pH 7.4).
# [10] = tested on: Enteroaggregative E. coli; experiment: Growth (OD600) and total protein of Enteroaggregative E. coli with rifaximin and bile acids; type: cell-based; conditions: 16 μg/mL rifaximin + 4 mM total bile acids
# Protocol: A second culture of Enteroaggregative E. coli bacteria in LB media to which was added 4 mM of bile acids (comprising an equimolar mixture of each of the bile acids: cholic, deoxycholic, chenodeoxycholic, glycocholic, lithocholic, and taurocholic acids at pH 7.4).
# [11] = tested on: Enterotoxigenic Escherichia coli (ETEC) strain H10407; conditions: cited from earlier work
# [12] = tested on: coliform flora; conditions: cited from earlier work
# [13] = tested on: Clostridium difficile; conditions: cited from earlier work
# [14] = 4 mM bile acid + 16 μg/mL rifaximin vs 16 μg/mL rifaximin alone, 4 hours
# [15] = bile acid 4 mM combined with 16 μg/mL rifaximin, after 4 hours of incubation
# [16] = bile acid alone, no rifaximin, after 4 hours of incubation
compound,measurement,setting,value
C[C@H](CCC(=O)O)[C@H]1CC[C@H]2[C@@H]3[C@H](O)C[C@@H]4C[C@H](O)CC[C@]4(C)[C@H]3CC[C@]12C [Chenodeoxycholic acid],PERCENT DECREASE IN CELL DENSITY ON ADDITION OF BILE ACIDS TO RIFAXIMIN,[1]; [14],89.2 ± 0.49%
same,PERCENT DECREASE IN CELL DENSITY ON ADDITION OF BILE ACIDS TO RIFAXIMIN,"[1]; 4 mM bile acid + 16 μg/mL rifaximin vs 16 μg/mL rifaximin alone, 4 hours, listed as chenodeoxycholic acid",89.2%
same,"Cell density, 4 mM BILE ACIDS + 16 μg/mL RIFAXIMIN",[1]; [15],0.53 ± 0.51 ×10^8 bacteria/milliliter of c
same,"Cell density, 4 mM BILE ACIDS",[2]; [16],7.0 ± 0.06 ×10^8 bacteria/milliliter of c
C[C@H](CCC(=O)O)[C@H]1CC[C@H]2[C@@H]3[C@H](O)C[C@@H]4C[C@H](O)CC[C@]4(C)[C@H]3C[C@H](O)[C@]12C [Cholic acid],PERCENT DECREASE IN CELL DENSITY ON ADDITION OF BILE ACIDS TO RIFAXIMIN,[1]; [14],95.5 ± 0.80%
same,PERCENT DECREASE IN CELL DENSITY ON ADDITION OF BILE ACIDS TO RIFAXIMIN,"[1]; 4 mM bile acid + 16 μg/mL rifaximin vs 16 μg/mL rifaximin alone, 4 hours, listed as cholic acid",95.5%
same,"Cell density, 4 mM BILE ACIDS + 16 μg/mL RIFAXIMIN",[1]; [15],0.22 ± 0.20 ×10^8 bacteria/milliliter of c
same,"Cell density, 4 mM BILE ACIDS",[2]; [16],11 ± 0.46 ×10^8 bacteria/milliliter of c
C[C@H](CCC(=O)O)[C@H]1CC[C@H]2[C@@H]3CC[C@@H]4C[C@H](O)CC[C@]4(C)[C@H]3C[C@H](O)[C@]12C [Deoxycholic acid],PERCENT DECREASE IN CELL DENSITY ON ADDITION OF BILE ACIDS TO RIFAXIMIN,[1]; [14],93.8 ± 0.51%
same,PERCENT DECREASE IN CELL DENSITY ON ADDITION OF BILE ACIDS TO RIFAXIMIN,"[1]; 4 mM bile acid + 16 μg/mL rifaximin vs 16 μg/mL rifaximin alone, 4 hours, listed as deoxycholic acid",93.8%
same,"Cell density, 4 mM BILE ACIDS + 16 μg/mL RIFAXIMIN",[1]; [15],0.30 ± 0.49 ×10^8 bacteria/milliliter of c
same,"Cell density, 4 mM BILE ACIDS",[2]; [16],3.9 ± 0.34 ×10^8 bacteria/milliliter of c
C[C@H](CCC(=O)NCC(=O)O)[C@H]1CC[C@H]2[C@@H]3[C@H](O)C[C@@H]4C[C@H](O)CC[C@]4(C)[C@H]3C[C@H](O)[C@]12C [Glycocholic acid],PERCENT DECREASE IN CELL DENSITY ON ADDITION OF BILE ACIDS TO RIFAXIMIN,[1]; [14],80.8 ± 0.40%
same,PERCENT DECREASE IN CELL DENSITY ON ADDITION OF BILE ACIDS TO RIFAXIMIN,"[1]; 4 mM bile acid + 16 μg/mL rifaximin vs 16 μg/mL rifaximin alone, 4 hours, listed as glycocholic acid",80.8%
same,"Cell density, 4 mM BILE ACIDS + 16 μg/mL RIFAXIMIN",[1]; [15],0.94 ± 0.60 ×10^8 bacteria/milliliter of c
same,"Cell density, 4 mM BILE ACIDS",[2]; [16],14 ± 0.32 ×10^8 bacteria/milliliter of c
C[C@H](CCC(=O)O)[C@H]1CC[C@H]2[C@@H]3CC[C@@H]4C[C@H](O)CC[C@]4(C)[C@H]3CC[C@]12C [Lithocholic acid],PERCENT DECREASE IN CELL DENSITY ON ADDITION OF BILE ACIDS TO RIFAXIMIN,[1]; [14],43.9 ± 0.73%
same,PERCENT DECREASE IN CELL DENSITY ON ADDITION OF BILE ACIDS TO RIFAXIMIN,"[1]; 4 mM bile acid + 16 μg/mL rifaximin vs 16 μg/mL rifaximin alone, 4 hours, listed as lithocholic acid",43.9%
same,"Cell density, 4 mM BILE ACIDS + 16 μg/mL RIFAXIMIN",[1]; [15],2.8 ± 0.27 ×10^8 bacteria/milliliter of c
same,"Cell density, 4 mM BILE ACIDS",[2]; [16],6.6 ± 0.25 ×10^8 bacteria/milliliter of c
C[C@H](CCC(=O)NCCS(=O)(=O)O)[C@H]1CC[C@H]2[C@@H]3[C@H](O)C[C@@H]4C[C@H](O)CC[C@]4(C)[C@H]3C[C@H](O)[C@]12C [Taurocholic acid],"Cell density, 4 mM BILE ACIDS + 16 μg/mL RIFAXIMIN",[1],1.1 ± 0.23
same,PERCENT DECREASE IN CELL DENSITY ON ADDITION OF BILE ACIDS TO RIFAXIMIN,[1],77.6% and 77.6 ± 0.77%
same,"Cell density, 4 mM BILE ACIDS",[2],14 ± 0.51
"CO[C@H]1/C=C/O[C@@]2(C)Oc3c(C)c(O)c4c(O)c(c5c(nc6cc(C)ccn65)c4c3C2=O)NC(=O)/C(C)=C\C=C\[C@H](C)[C@H](O)[C@@H](C)[C@@H](O)[C@@H](C)[C@H](OC(C)=O)[C@@H]1C [rifaximin, Rifaximin]",inhibition of bacterial growth by rifaximin alone,"[1]; 16 μg/mL rifaximin, absence of bile acids","statistically significant (p=0.026, n=4) inhibition of bacterial growth"
same,increase of anti-ETEC activity on addition of bile acids / human bile to rifaximin,[1]; after 4 hours,greater than 70%
same,"Cell density, 16 μg/mL RIFAXIMIN","[1]; rifaximin alone, no bile acids, after 4 hours of incubation, control of the bile acid named in the row",6.6 ± 0.50 ×10^8 bacteria/milliliter of c and 4.9 ± 1.0 ×10^8 bacteria/milliliter of c
same,amount of beta-galactosidase produced vs control,[3],decreased in a dose-dependent fashion below the control values
same,percent decrease in total bacterial protein expression when bile acids added,[4],59%
same,MIC,[5],64 µg/mL
same,MIC,[6],64 µg/mL
same,MIC,[7],32 µg/mL
same,effect of adding bile acids to rifaximin on growth and protein synthesis,[8],increases its ability to inhibit the growth and protein synthesis
same,effect of adding bile acids to rifaximin on growth and protein synthesis,[9],increases its ability to inhibit the growth and protein synthesis
same,effect of adding bile acids to rifaximin on growth and protein synthesis,[10],increases its ability to inhibit the growth and protein synthesis
same,in vitro minimal inhibitory concentration (MIC),[11],32 to 128 µg/mL
same,average MICs of most coliform flora,[12],about 32 μg/mL
same,MIC,[13],0.025 µg/mL
